Experimental data published in PubChem BioAssay (NCI).
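Here, GI50 denotes the concentration required for 50% inhibition of growth. TGI marks complete inhibition of growth.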

Experiments:
Assay in all cases: NCI tumour cell line growth inhibition, 384-well format
HCC-2998 colon = system: HCC-2998 colon
NCI/ADR-RES ovarian = system: NCI/ADR-RES ovarian
MALME-3M melanoma = system: MALME-3M melanoma
OVCAR-5 ovarian = system: OVCAR-5 ovarian
SK-MEL-5 melanoma = system: SK-MEL-5 melanoma
NCI-H23 lung = system: NCI-H23 lung
SN12C renal = system: SN12C renal
MOLT-4 leukemia = system: MOLT-4 leukemia
NCI-H226 lung = system: NCI-H226 lung
BT-549 breast = system: BT-549 breast
OVCAR-3 ovarian = system: OVCAR-3 ovarian
OVCAR-4 ovarian = system: OVCAR-4 ovarian
CCRF-CEM leukemia = system: CCRF-CEM leukemia
TK-10 renal = system: TK-10 renal
A549 NSCLC = system: A549 NSCLC
CAKI-1 renal = system: CAKI-1 renal
NCI-H522 lung = system: NCI-H522 lung
M14 melanoma = system: M14 melanoma
SW-620 colon = system: SW-620 colon
SR leukemia = system: SR leukemia
COLO 205 colon = system: COLO 205 colon
UACC-62 melanoma = system: UACC-62 melanoma
MDA-MB-468 breast = system: MDA-MB-468 breast
UO-31 renal = system: UO-31 renal
SF-539 CNS = system: SF-539 CNS
UACC-257 melanoma = system: UACC-257 melanoma
LOX IMVI melanoma = system: LOX IMVI melanoma
SK-MEL-28 melanoma = system: SK-MEL-28 melanoma
HL-60(TB) leukemia = system: HL-60(TB) leukemia
RXF 393 renal = system: RXF 393 renal
EKVX NSCLC = system: EKVX NSCLC
OVCAR-8 ovarian = system: OVCAR-8 ovarian
MDA-MB-435 melanoma = system: MDA-MB-435 melanoma
SF-268 CNS = system: SF-268 CNS
RPMI-8226 leukemia = system: RPMI-8226 leukemia
HS 578T breast = system: HS 578T breast
HOP-62 NSCLC = system: HOP-62 NSCLC
SNB-19 CNS = system: SNB-19 CNS
NCI-H460 NSCLC = system: NCI-H460 NSCLC
KM12 colon = system: KM12 colon
NCI-H322M lung = system: NCI-H322M lung
SNB-75 CNS = system: SNB-75 CNS

Compound: CN1CC[C@@H](c2c(O)cc(O)c3c(=O)cc(-c4ccccc4Cl)oc23)[C@@H](O)C1
- GI50 (HCC-2998 colon): 0.0424 µM
- TGI (HCC-2998 colon): 0.151 µM
- GI50 (NCI/ADR-RES ovarian): 0.0896 µM
- TGI (NCI/ADR-RES ovarian): 0.319 µM
- GI50 (MALME-3M melanoma): 0.0425 µM
- TGI (MALME-3M melanoma): 0.141 µM
- GI50 (OVCAR-5 ovarian): 0.0242 µM
- TGI (OVCAR-5 ovarian): 0.0708 µM
- GI50 (SK-MEL-5 melanoma): 0.0298 µM
- TGI (SK-MEL-5 melanoma): 0.0568 µM
- GI50 (NCI-H23 lung): 0.0301 µM
- TGI (NCI-H23 lung): 0.112 µM
- GI50 (SN12C renal): 0.028 µM
- TGI (SN12C renal): 0.0911 µM
- GI50 (MOLT-4 leukemia): 0.0237 µM
- TGI (MOLT-4 leukemia): 0.045 µM
- GI50 (NCI-H226 lung): 0.0187 µM
- TGI (NCI-H226 lung): 0.0639 µM
- GI50 (BT-549 breast): 0.0256 µM
- TGI (BT-549 breast): 0.0908 µM
- GI50 (OVCAR-3 ovarian): 0.0331 µM
- TGI (OVCAR-3 ovarian): 0.095 µM
- GI50 (OVCAR-4 ovarian): 0.0596 µM
- TGI (OVCAR-4 ovarian): 0.282 µM
- GI50 (CCRF-CEM leukemia): 0.0194 µM
- TGI (CCRF-CEM leukemia): 0.0361 µM
- GI50 (TK-10 renal): 0.0357 µM
- TGI (TK-10 renal): > 100 µM
- GI50 (A549 NSCLC): 0.0349 µM
- TGI (A549 NSCLC): > 100 µM
- GI50 (CAKI-1 renal): 0.0351 µM
- TGI (CAKI-1 renal): > 100 µM
- GI50 (NCI-H522 lung): 0.109 µM
- TGI (NCI-H522 lung): 0.252 µM
- GI50 (M14 melanoma): 0.0325 µM
- TGI (M14 melanoma): 0.116 µM
- GI50 (SW-620 colon): 0.0348 µM
- TGI (SW-620 colon): 0.204 µM
- GI50 (SR leukemia): 0.0102 µM
- TGI (SR leukemia): 0.0222 µM
- GI50 (COLO 205 colon): 0.0313 µM
- TGI (COLO 205 colon): 0.0824 µM
- GI50 (UACC-62 melanoma): 0.0178 µM
- TGI (UACC-62 melanoma): 0.0407 µM
- GI50 (MDA-MB-468 breast): 0.0283 µM
- TGI (MDA-MB-468 breast): 0.0874 µM
- GI50 (UO-31 renal): 0.036 µM
- TGI (UO-31 renal): > 100 µM
- GI50 (SF-539 CNS): 0.0247 µM
- TGI (SF-539 CNS): 0.072 µM
- GI50 (UACC-257 melanoma): 0.0515 µM
- TGI (UACC-257 melanoma): 0.173 µM
- GI50 (LOX IMVI melanoma): 0.0208 µM
- TGI (LOX IMVI melanoma): 0.0632 µM
- GI50 (SK-MEL-28 melanoma): 0.0285 µM
- TGI (SK-MEL-28 melanoma): 0.132 µM
- GI50 (HL-60(TB) leukemia): 0.0133 µM
- TGI (HL-60(TB) leukemia): 0.0263 µM
- GI50 (RXF 393 renal): 0.0191 µM
- TGI (RXF 393 renal): 0.0386 µM
- GI50 (EKVX NSCLC): 0.0599 µM
- TGI (EKVX NSCLC): 0.299 µM
- GI50 (OVCAR-8 ovarian): 0.025 µM
- TGI (OVCAR-8 ovarian): 0.078 µM
- GI50 (MDA-MB-435 melanoma): 0.103 µM
- TGI (MDA-MB-435 melanoma): 0.255 µM
- GI50 (SF-268 CNS): 0.0178 µM
- TGI (SF-268 CNS): 0.0386 µM
- GI50 (RPMI-8226 leukemia): 0.0227 µM
- TGI (RPMI-8226 leukemia): 0.0513 µM
- GI50 (HS 578T breast): 0.0228 µM
- TGI (HS 578T breast): 0.0479 µM
- GI50 (HOP-62 NSCLC): 0.0202 µM
- TGI (HOP-62 NSCLC): 0.0456 µM
- GI50 (SNB-19 CNS): 0.0503 µM
- TGI (SNB-19 CNS): > 100 µM
- GI50 (NCI-H460 NSCLC): 0.0215 µM
- TGI (NCI-H460 NSCLC): 0.0496 µM
- GI50 (KM12 colon): 0.0279 µM
- TGI (KM12 colon): 0.244 µM
- GI50 (NCI-H322M lung): 0.0337 µM
- TGI (NCI-H322M lung): 0.126 µM
- GI50 (SNB-75 CNS): 0.113 µM
- TGI (SNB-75 CNS): 0.244 µM
